Measured values from publication PMC10046961, “High-Throughput Screening Assay for Detecting Drug-Induced Changes in Synchronized Neuronal Oscillations and Potential Seizure Risk Based on Ca^2+ Fluorescence Measurements in Human Induced Pluripotent Stem Cell (hiPSC)-Derived Neuronal 2D and 3D Cultures” (Cells, 2023).
Like-named read-outs stand apart in the source and are kept apart here.

Columns and labels:
[1] = tested on: hiPSC-derived neurons co-cultured with human primary astrocytes in 3D; experiment: Ca2+ transient oscillation assay (FDSS), 3D spheroids; format: cell-based; details: 60 min
How it was run: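 Fura-2 fluorescence was read twice for 20 min each: a baseline 10 min after 0.04% DMSO, and again 60 min after compound addition at nominal final concentration. The 3D co-cultures (1:1 hiPSC neurons from a donor and human astrocytes, 8000 each) matured 5 weeks in BrainPhys medium after a 1-week differentiation.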

[2] = Table 1; peak plasma concentration in men, free therapeutic Cmax; ref PharmaPendium; cited from earlier work
[3] = tested on: hiPSC-derived neurons co-cultured with human primary astrocytes in 2D; experiment: Ca2+ transient oscillation assay (FDSS), 2D co-culture; format: cell-based; details: Homo sapiens, 1 h, 60 min
How it was run: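 Cultures were 10,000 CW50065 hiPSC excitatory neurons plus 2500 primary human astrocytes per well. Recordings used Cal-520 dye in HBSS/HEPES/glucose at 37 °C, with a 470/540 nm read at 2 Hz. Oscillations were stabilized with 0.04% DMSO, read for 20 min, then read again 60 min after compound addition (final DMSO 0.1%).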

[4] = read-out: Area under the curve - 2D Mean
[5] = read-out: Peak amplitude - 2D Mean
[6] = read-out: Peak-to-peak interval - 2D Mean

CCn1cc(C(=O)O)c(=O)c2cc(F)c(N3CCNCC3)nc21 [Enoxacin]
Area under the curve - 3D Mean ([1]; 0.37 µM): 115.6 % change from baseline
Peak Number—3D Mean ([1]; 0.37 µM): −16.9 % change from baseline
Peak amplitude - 3D Mean ([1]; 0.37 µM): 106.8 % change from baseline
Peak width - 3D Mean ([1]; 0.37 µM): 3.2 % change from baseline
Peak-to-peak interval - 3D Mean ([1]; 0.37 µM): 30.9 % change from baseline
Area under the curve - 3D Mean ([1]; 1.11 µM): 124.6 % change from baseline
Peak Number—3D Mean ([1]; 1.11 µM): 5.5 % change from baseline
Peak amplitude - 3D Mean ([1]; 1.11 µM): 123.3 % change from baseline
Peak width - 3D Mean ([1]; 1.11 µM): −2.2 % change from baseline
Peak-to-peak interval - 3D Mean ([1]; 1.11 µM): −0.7 % change from baseline
Area under the curve - 3D Mean ([1]; 3.33 µM): 139.4 % change from baseline
Peak Number—3D Mean ([1]; 3.33 µM): 13.2 % change from baseline
Peak amplitude - 3D Mean ([1]; 3.33 µM): 129.6 % change from baseline
Peak width - 3D Mean ([1]; 3.33 µM): 3.0 % change from baseline
Peak-to-peak interval - 3D Mean ([1]; 3.33 µM): −1.3 % change from baseline
Area under the curve - 3D Mean ([1]; 10 µM): 114.6 % change from baseline
Peak Number—3D Mean ([1]; 10 µM): 2.2 % change from baseline
Peak amplitude - 3D Mean ([1]; 10 µM): 116.3 % change from baseline
Peak width - 3D Mean ([1]; 10 µM): −1.1 % change from baseline
Peak-to-peak interval - 3D Mean ([1]; 10 µM): −1.1 % change from baseline
Free Cmax [2]: 1000 to 4000 nM
activation at 0.37 µM [3, 4]: 25.5%
activation at 0.37 µM ([3]; read-out: Peak Number—2D Mean): 1.3%
activation at 0.37 µM [3, 5]: 7.8%
activation at 0.37 µM ([3]; read-out: Peak width - 2D Mean): 18.3%
activation at 0.37 µM [3, 6]: 18%
activation at 1.11 µM [3, 4]: 41%
activation at 1.11 µM ([3]; read-out: Peak Number—2D Mean): 2.3%
activation at 1.11 µM [3, 5]: 5.3%
activation at 1.11 µM ([3]; read-out: Peak width - 2D Mean): 45.8%
activation at 1.11 µM [3, 6]: 1.3%
activation at 3.33 µM [3, 4]: 47.3%
activation at 3.33 µM ([3]; read-out: Peak Number—2D Mean): 5.5%
activation at 3.33 µM [3, 5]: 13.5%
activation at 3.33 µM ([3]; read-out: Peak width - 2D Mean): 39%
activation at 3.33 µM [3, 6]: 12.7%
activation at 10 µM [3, 4]: 49.3%
activation at 10 µM ([3]; read-out: Peak Number—2D Mean): 2%
activation at 10 µM [3, 5]: 11.3%
activation at 10 µM ([3]; read-out: Peak width - 2D Mean): 49%
activation at 10 µM [3, 6]: -3%
